The values below come from patent US4895727A, “Pharmaceutical vehicles for exhancing penetration and retention in the skin” (priority 1985, dated 1990).

One series has as its system human breast adenocarcinoma, MX-1. The following applies: in vivo.
As for `CC(Cc1ccc(O)c(O)c1)C(C)Cc1ccc(O)c(O)c1` (racemic) [dl-NDGA (no Zn), nordihydroguaiaretic acid], the “Premature Death” value came out at 0 and the “Tumor at Death” value amounted to 1.

Regarding `Oc1ccc(CCc2ccc(CCc3ccc(O)c(O)c3)cc2)cc1O` [1,4-bis(3,4-dihydroxyphenethyl)-benzene], the “Premature Death” value is 0.

`CC(=O)Oc1ccc(C=CC=Cc2ccccc2)cc1OC(C)=O` [1-(3,4-diacetoxyphenyl)-4-phenyl-buta-1,3-diene]: the “Premature Death” value is 0.

With `CC(C)(C)c1cccc(O)c1` [3-tertbutylphenol (no Zn), 3-tertbutylphenol], the “Premature Death” value is recorded as 3.

Regarding `COc1cc(C2c3cc4c(cc3C(O)C3COC(=O)C23)OCO4)cc(OC)c1O` (centres unmarked) [4'-demethylepipodophyllotoxin (no Zn), 4'-demethylepipodophyllotoxin], the “Premature Death” value is listed as 0, the “Tumor Free 60 Days” value worked out at 1, the “Tumor Recurrence” value worked out at 3 and the “Tumor at Death” value is on record as 4.

In the case of `COc1cc(C2c3cc4c(cc3C(OC3OC5COC(c6cccs6)OC5C(O)C3O)C3COC(=O)C23)OCO4)cc(OC)c1O` (stereo not drawn) [VM-26 (no Zn), epipodophyllotoxin beta-D thenylidene glucopyranoside], the “Premature Death” value is 0, the “Tumor Free 60 Days” value is on record as 0, the “Tumor Recurrence” value is 0 and the “Tumor at Death” value came to 5.

On to `COc1cc(C2c3cc4c(cc3C(OC3OC5COC(C)OC5C(O)C3O)C3COC(=O)C23)OCO4)cc(OC)c1O` (stereo not drawn) [VP-16 (no Zn), epipodophyllotoxin beta-D ethylidene glucopyranoside], for which the “Premature Death” value is on record as 2, the “Tumor Free 60 Days” value was determined as 2, the “Tumor Recurrence” value stood at 0 and the “Tumor at Death” value is 3.

Take `COc1cccc2c1C(=O)c1c(O)c3c(c(O)c1C2=O)C[C@@](O)(C(=O)CO)C[C@@H]3O[C@H]1C[C@H](N)[C@H](O)[C@H](C)O1` [adriamycin (no Zn), adriamycin]: the “Premature Death” value was 1.

Regarding `Oc1ncnc2[nH]ncc12` [allopurinol (no Zn), allopurinol], the “Premature Death” value is 0.

In the case of `O=C(O)CCCCCCCC(=O)O` [azelaic acid (no Zn), azelaic acid], the “Premature Death” value worked out at 0.

As to `O=P1(N(CCCl)CCCl)NCCCO1` (centres unmarked) [cyclophosphamide (no Zn), cyclophosphamide], the “Premature Death” value is 0 and the “Tumor at Death” value is 5.

In the case of `COc1cccc2c1C(=O)c1c(O)c3c(c(O)c1C2=O)C[C@@](O)(C(C)=O)C[C@@H]3O[C@H]1C[C@H](N)[C@H](O)[C@H](C)O1` [daunomycin (no Zn), daunomycin], the “Premature Death” value is recorded as 2.

In the case of `CC/C(=C(/CC)c1ccc(O)cc1)c1ccc(O)cc1` [diethylstilbestrol (no Zn), diethylstilbestrol], the “Premature Death” value was found to be 2.

Regarding `O=C1c2c(O)cccc2Cc2cccc(O)c21` [dithranol (no Zn), dithranol], the “Premature Death” value stood at 0.

Turning to `CO[C@@]12[C@H](COC(N)=O)C3=C(C(=O)C(C)=C(N)C3=O)N1C[C@@H]1N[C@@H]12` [mitomycin (no Zn), mitomycin], the “Premature Death” value is recorded as 4.

On to `O=C(O)C=Cc1ccc(O)cc1` [p-hydroxycinnamic acid (no Zn), p-hydroxycinnamic acid], for which the “Premature Death” value turned out to be 0.

As to `N.N.[Cl][Pt][Cl]` [platinum cis-diamine-dichloride (no Zn), platinum cis-diamine-dichloride], the “Premature Death” value amounted to 0 and the “Tumor at Death” value is 4.

Regarding norisoguaiacin [norisoguaiacin (no Zn)], the “Premature Death” value is 1 and the “Tumor at Death” value is 1.

Staying with this series, now noted: number of animals of five; single intratumor injection 0.01 ml; standard dosage level.
Take `CC(Cc1ccc(O)c(O)c1)C(C)Cc1ccc(O)c(O)c1` (racemic) [dl-NDGA (no Zn), nordihydroguaiaretic acid]: the “Tumor Free 60 Days” value worked out at 4 and the “Tumor Recurrence” value amounted to 0.

Regarding `O=P1(N(CCCl)CCCl)NCCCO1` (centres unmarked) [cyclophosphamide (no Zn), cyclophosphamide], the “Tumor Free 60 Days” value stood at 0 and the “Tumor Recurrence” value is 0.

For `N.N.[Cl][Pt][Cl]` [platinum cis-diamine-dichloride (no Zn), platinum cis-diamine-dichloride], the “Tumor Free 60 Days” value was found to be 1 and the “Tumor Recurrence” value came out at 0.

In the case of norisoguaiacin [norisoguaiacin (no Zn)], the “Tumor Free 60 Days” value was 2 and the “Tumor Recurrence” value was found to be 0.

System in another series: not given
The following applies: 0.257 moles per 100 grams; general statement; cited from earlier work.
Turning to `[Cl-].[Cl-].[Zn+2]` [zinc chloride], the “concentration causing tissue destruction when topically applied” value is given as at least 35%.

System in another series: not given
As to conditions: background; cited from earlier work.
Regarding `CN(Cc1cnc2nc(N)nc(N)c2n1)c1ccc(C(=O)N[C@@H](CCC(=O)O)C(=O)O)cc1` [methotrexate], the systemic toxicity result is “systemically toxic”.
